# From BindingDB's records for patent US10532048 (Seldar Pharma Inc., 2020)
# Biological target: Gastrin-releasing peptide receptor (Homo sapiens, UniProt P30550)
# Test: BB2 Receptor Antagonistic Activity
# Experimental: A BB2 receptor binding test was carried out using a membrane sample prepared from a human prostate cancer-derived PC-3 cell. The PC-3 cell was cultured using an RPMI-1640 medium containing 5% fetal bovine serum, and then a membrane sample was prepared by the following methods. The cells detached by a trypsin treatment were added with a 50 mM Tris-HCl buffer (pH 7.4, containing 0.2 mg/ml trypsin inhibitor and 0.2 mg/ml benzamidine), and homogenized by Polytron. The cell suspension was centrifuged at 1,500 rpm for 10 minutes, and the supernatant thus obtained was subjected to 1 hour of ultracentrifugation at 37,000×g. The precipitate was suspended in the aforementioned buffer to a concentration of 0.4 mg protein/ml, and stored at −80° C.The BB2 receptor binding test was carried out by the following method, and the receptor antagonistic activity of a compound to be tested was calculated. […] Non-specific binding was measured using 1 μM of bombesin. […] The radioactivity on the filter was measured using a microplate scintillation counter (Top Count, Perkin-Elmer Co., Ltd.).
# Chain of Gastrin-releasing peptide receptor (P30550 whole entry): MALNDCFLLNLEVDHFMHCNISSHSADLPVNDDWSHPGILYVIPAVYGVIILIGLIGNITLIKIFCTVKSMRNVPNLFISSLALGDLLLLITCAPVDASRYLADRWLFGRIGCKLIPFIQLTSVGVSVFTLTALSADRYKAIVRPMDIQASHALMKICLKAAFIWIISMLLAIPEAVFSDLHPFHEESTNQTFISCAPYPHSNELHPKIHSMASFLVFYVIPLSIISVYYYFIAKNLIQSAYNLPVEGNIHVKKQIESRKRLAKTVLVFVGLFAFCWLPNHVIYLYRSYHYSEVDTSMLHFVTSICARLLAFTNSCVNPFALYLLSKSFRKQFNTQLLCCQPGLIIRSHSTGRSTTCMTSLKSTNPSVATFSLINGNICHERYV
structure (smiles),measurement,value
"O=C(NCCc1ccccc1)[C@@H]1c2ccccc2C(=O)N([C@H](CO)c2ccccc2)[C@H]1c1ccc(Cl)cc1Cl [US10532048, Example 62]",IC50,18.3 nM
